Columns and labels:
[1] = system: mutant lettuce plant (Lactuca sativa), having a mutated version of the OPR3 gene; test: Reversal of male sterility by spraying young flower buds of homozygous OPR3 mutant lettuce; assay type: in vivo; details: for restoration of male fertility in F2 generation: F2 of cross NCIMB 42060 x wild-type lettuce, treatment as described in Example 1; for seed production through selfing: inflorescences sprayed with 200 μM solution, compared with mock-treated control plants (FIG. 1)
Source text: A mutant lettuce plant (Lactuca sativa), having a mutated version of the OPR3 gene, was obtained by means of chemical mutagenesis and subsequent TILLING screening of about 3,000 M2 plants.
Phenotypically this mutant lettuce plant was indistinguishable from wild-type lettuce plants, when the mutation was present in a heterozygous state. […] The few pollen grains that developed in such homozygous mutants were not functional.
From the early bolting stage the inflorescences were sprayed 5 times per week, for a total of 3 weeks.

[2] = system: mutant endive plant (Cichorium endivia), having a mutated version of the OPR3 gene; test: Reversal of male sterility and pale flower color by treating young flower buds of homozygous OPR3 mutant endive; assay type: in vivo; details: for restoration of male fertility in F2 generation: F2 of cross of endive of the invention x wild-type endive, treatment as described in Example 3; for overcoming male sterility caused by the opr3 mutation: homozygous mutant endive, application to flower buds; for flower color of flowers developed from treated flower buds / male fertility (pollen function and seed set through self-pollination): homozygous mutants, daily spraying with 200 μM (0.2 mM) aqueous solution with 0.025% Zipper surfactant; for flower color of flowers developed from treated flower buds: about 3.5 months, untreated or mock-treated flowers pale (FIG. 2); for male fertility (pollen function and seed set through self-pollination): controls remained male-sterile
Source text: A mutant endive plant (Cichorium endivia), having a mutated version of the OPR3 gene, was obtained by means of chemical mutagenesis and subsequent TILLING screening of about 10,000 M2 plants.
Phenotypically this mutant endive plant was indistinguishable from wild-type endive plants, when the mutation was present in a heterozygous state. […] The pollen grains that developed in such homozygous mutants were unable to germinate and therefore dysfunctional.
Blue was the wild-type flower color in this endive background.

[3] = system: Arabidopsis thaliana with mutations in the OPR3 gene; details: treating flower buds; cited from earlier work

Q: For `CC/C=C\C[C@H]1C(=O)CC[C@@H]1CC(=O)O` [jasmonic acid, (3R,7S)-jasmonic acid], which “restoration of male fertility in F2 generation” value (from here on “restoration … in F2 generation”) [1] is on record?
A: Its value is “sufficient to restore male fertility”.

Q: And the “restoration … in F2 generation” value [2]?
A: The value was “sufficient to restore male fertility”.

Q: And the “overcoming male sterility caused by the opr3 mutation” value [2]?
A: The value was “had the same effect”.

Q: For `CC/C=C\CC1C(=O)CCC1CC(=O)OC` (stereo not drawn) [methyl jasmonate], which “restoration … in F2 generation” value [1] is on record?
A: The value was “sufficient to restore male fertility”.

Q: What about the “seed production through selfing” value ([1]; homozygous mutants) of the same compound?
A: The value was “has produced seeds through selfing”.

Q: What about the “seed production through selfing” value ([1]; homozygous mutants, listed as MeJA) of the same compound?
A: The value was “produced seeds in a subset of their flowers”.

Q: What about the “restoration of male fertility” value ([1]; homozygous mutants, young flower buds sprayed with 200 μM (0.2 mM) aqueous solution plus 0.025% Zipper surfactant, 5 times per week for 3 weeks) of the same compound?
A: The value was “sufficient to restore male fertility”.

Q: And the “restoration … in F2 generation” value [2]?
A: Its value is “sufficient to restore male fertility”.

Q: What about the “overcoming male sterility caused by the opr3 mutation” value [2] of the same compound?
A: The value was “could be overcome”.

Q: What about the “flower color of flowers developed from treated flower buds” value [2] of the same compound?
A: Its value is “changed to blue”.

Q: What about the “flower color of flowers developed from treated flower buds” value ([2]; listed as MeJA) of the same compound?
A: The value was “developed into blue flowers”.

Q: What about the “male fertility (pollen function and seed set through self-pollination)” value [2] of the same compound?
A: The value was “has become male-fertile”.

Q: What about the “male fertility (pollen function and seed set through self-pollination)” value ([2]; listed as MeJA) of the same compound?
A: The value was “produced viable, functional pollen and were able to set seed through self-pollination”.

Q: And the “effect of other application methods than spraying” value ([2]; solution painted onto the surface of young flower buds with a fine brush)?
A: Its value is “comparable effects”.

Q: What about the “restoration of male fertility” value [3] of the same compound?
A: Its value is “Male fertility could be restored”.
